Experiments:
Assay in all cases: relative viability (nuclei count vs DMSO), 5 days (fraction); higher = more cells survive
[1] = compound: O=C(C[C@H]1NCCC[C@@H]1O)Cn1cnc2cc(Br)c(Cl)cc2c1=O (racemic) [Halofuginone] + CC(=O)Nc1cccc(-n2c(=O)n(C3CC3)c(=O)c3c(Nc4ccc(I)cc4F)n(C)c(=O)c(C)c32)c1 [Trametinib] (partner 0.02 µM)
How it was run: (§1)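 A single step with final 0.05% Triton X-100, 1% formaldehyde and 1 ug/ml Hoechst fixed the cells and stained nuclei 5 days after treatment. Lung cancer cell lines in 1536-well plates had been treated by pin tool the day after seeding with one drug alone or a fixed anchor-drug dose plus five library-drug doses (not always all listed) in √10 steps, and nuclei were counted on 4× images. Relative viability is the ratio of nuclei in treated wells to nuclei in vehicle wells, taken as the median of duplicate plates.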

Decitabine + Vorinostat = compound: Nc1ncn([C@H]2C[C@H](O)[C@@H](CO)O2)c(=O)n1 [Decitabine] + O=C(CCCCCCC(=O)Nc1ccccc1)NO [Vorinostat] (partner 1 µM)
How it was run: as §1

Halofuginone + Olaparib = compound: O=C(C[C@H]1NCCC[C@@H]1O)Cn1cnc2cc(Br)c(Cl)cc2c1=O (racemic) [Halofuginone] + O=C(c1cc(Cc2n[nH]c(=O)c3ccccc23)ccc1F)N1CCN(C(=O)C2CC2)CC1 [Olaparib] (partner 8 µM)
How it was run: as §1

Halofuginone + Dasatinib = compound: O=C(C[C@H]1NCCC[C@@H]1O)Cn1cnc2cc(Br)c(Cl)cc2c1=O (racemic) [Halofuginone] + Cc1nc(Nc2ncc(C(=O)Nc3c(C)cccc3Cl)s2)cc(N2CCN(CCO)CC2)n1 [Dasatinib] (partner 0.075 µM)
How it was run: as §1

Cell Line	relative viability ([1]; first compound 0.001 µM)	relative viability ([1]; first compound 0.003162 µM)	relative viability ([1]; first compound 0.01 µM)	relative viability ([1]; first compound 0.03162 µM)	relative viability ([1]; first compound 0.1 µM)	relative viability (Decitabine + Vorinostat; first compound 0.04 µM)	relative viability (Decitabine + Vorinostat; first compound 0.1265 µM)	relative viability (Decitabine + Vorinostat; first compound 0.4 µM)	relative viability (Decitabine + Vorinostat; first compound 1.265 µM)	relative viability (Decitabine + Vorinostat; first compound 4 µM)	relative viability (Halofuginone + Olaparib; first compound 0.001 µM)	relative viability (Halofuginone + Olaparib; first compound 0.003162 µM)	relative viability (Halofuginone + Olaparib; first compound 0.01 µM)	relative viability (Halofuginone + Olaparib; first compound 0.03162 µM)	relative viability (Halofuginone + Olaparib; first compound 0.1 µM)	relative viability (Halofuginone + Dasatinib; first compound 0.001 µM)	relative viability (Halofuginone + Dasatinib; first compound 0.003162 µM)	relative viability (Halofuginone + Dasatinib; first compound 0.01 µM)	relative viability (Halofuginone + Dasatinib; first compound 0.03162 µM)	relative viability (Halofuginone + Dasatinib; first compound 0.1 µM)
HCC-15	0.415	0.412	0.399	0.368	0.31	0.776	0.678	0.543	0.418	0.35	0.765	0.82	0.727	0.678	0.665	0.645	0.677	0.572	0.593	0.322
CAL-12T	0.352	0.414	0.359	0.329	0.196	0.615	0.432	0.486	0.318	0.238	0.785	0.717	0.709	0.754	0.548	0.685	0.396	0.377	0.282	0.154
NCI-H727	0.44	0.362	0.403	0.406	0.422	1.08	0.973	0.664	0.835	1.1	0.79	0.683	0.787	0.727	0.518	0.417	0.411	0.397	0.396	0.263
NCI-H2023	0.625	0.482	0.558	0.202	0.0677	0.305	0.389	0.23	0.142	0.119	0.509	0.565	0.405	0.239	0.0514	0.649	0.609	0.507	0.241	0.0614
NCI-H2342	0.816	0.832	0.972	0.85	0.823	0.755	0.798	0.728	0.542	0.522	0.644	0.431	0.413	0.431	0.427	0.302	0.326	0.309	0.326	0.378
SW 1573	0.563		0.596	0.23	0.0886	0.515	0.601	0.458	0.325	0.206	0.496	0.422	0.526	0.232	0.138	0.576	0.579	0.481	0.241	0.0881
NCI-H1993	0.502	0.505	0.597	0.505	0.485	0.628	0.737	0.614	0.399	0.487	0.949	0.699	1.04	1.02	0.623	0.619	0.558	0.562	0.532	0.434
NCI-H661	0.624	0.629	0.579	0.515	0.373	0.806	0.602	0.54	0.467	0.485	0.797	0.74	0.671	0.666	0.566	0.954	0.884	0.856	0.79	0.378
NCI-H520	0.572	0.734	0.695	0.45	0.287	0.622	0.627	0.413	0.397	0.296	0.324	0.291	0.303	0.378	0.187	0.215	0.173	0.175	0.16	0.17
ChaGo-K-1	0.873	0.899	0.924	0.887	0.79	0.771	0.684	0.402	0.39	0.374	0.397	0.452	0.407	0.398	0.442	0.502	0.602	0.607	0.622	0.6
NCI-H2085	0.541	0.512	0.525	0.585	0.349	0.65	0.657	0.591	0.443	0.431	0.795	0.816	0.728	0.736	0.684	0.252	0.226	0.259	0.269	0.237
NCI-H1651	0.8	0.853	0.804	0.819	0.806	0.478	0.456	0.483	0.296	0.407	0.177	0.194	0.2	0.178	0.176	0.526	0.494	0.377	0.258	0.162
RERF-LC-KJ	0.924	0.984	0.837	0.824	0.591	0.573	0.651	0.286	0.528	0.494	1.19	0.983	0.884	0.959	0.632	0.875	0.91	0.764	0.862	0.633
NCI-H1755	0.793	0.786	0.745	0.774	0.765	0.637	0.608	0.611	0.403	0.429	0.853	0.941	0.881	0.833	0.723	0.514	0.435	0.465	0.422	0.291
SK-MES-1	0.554	0.53	0.511	0.499	0.232	0.812	0.739	0.529	0.301	0.319	0.768	0.69	0.713	0.345	0.174	0.38	0.429	0.446	0.283	0.117
NCI-H2126	0.525	0.544	0.585	0.546	0.513	0.675	0.678	0.477	0.488	0.386	0.893	0.863	0.882	0.901	0.916	0.661	0.663	0.635	0.562	0.405
